Experimental findings from article PMC5854577, “A common mechanism of proteasome impairment by neurodegenerative disease-associated oligomers” (Nature Communications, 2018) are described below.

Starred links: 1 amine or outer side, 2 acyl side, 3 side chain; linkers in the order of their positions; H or OH if unused. Residues, ends and D or L forms follow the SMILES beside them. *: point of attachment. AMC = Cc1cc(=O)oc2cc(N*)ccc12; Suc = O=C(CCC(=O)[*:2])[*:1]

In this assay the target is T1, Mammalian 20S proteasome (bovine 20S) (Bos taurus, UniProt Q32KL2+Q3MHN0+Q3T0X5+Q5E987).
T1 construct: gene PSMB5; with Proteasome subunit beta type-1; Proteasome subunit beta type-2; Proteasome subunit beta type-3; Proteasome subunit beta type-4
The assay is described as follows: fluorogenic peptide hydrolysis. The format is biochemical. Conditions: chymotrypsin-like activity; 100 uM substrate, pH 7.4.

In the case of `Cc1cc(=O)oc2cc(NC(=O)[C@H](Cc3ccc(O)cc3)NC(=O)[C@@H](NC(=O)[C@H](CC(C)C)NC(=O)[C@H](CC(C)C)NC(=O)CCC(=O)O)C(C)C)ccc12` [suc-LLVY-amc] (Suc-LLVY-{AMC}), the fluorogenic peptide hydrolysis entry is on record as “Proteasome activity (linear rate of LLVY-amc hydrolysis)”.
